Experimental findings from patent publication US8598173B2, “1-[(6,7-substituted alkoxyquinoxalinyl)aminocarbonyl]-4-(hetero)arylpiperazine derivatives for treating tumors” (Korea Research Institute of Chemical Technology, priority 2004, dated 2013) are described below.

Molecules are shown by their SMILES. Where two headings read alike, the source gives them in different places. Some results are limits rather than exact numbers.

Format in all cases: cell-based, human
Common to all, as to settings: SRB method, 96 hours incubation
For orientation: In SRB staining, fixed cells bind dye roughly in proportion to their protein.

One test relates to MDA-MB-231 (breast). As to the kind of experiment: Cell growth inhibition assay (SRB), MDA-MB-231. As to the method:
(§1) OVCAR-3, MCF-7, PC3, HepG2, A549, HT-29 and MKN-45 were grown in RPMI1640 medium (Invitrogen, Carlsbad, Calif.) supplemented with 10% fetal bovine serum (‘FBS’), 1 mM sodium pyruvate, 10 mM HEPES and 100 U/ml penicillin and […] streptomycin (‘P/S’). MDA-MB-231, HCT116, UMRC2, Caki-1, PANC-1 and HEK293 cells were maintained in Dulbecco's modified Eagle's medium (‘DMEM’, Invitrogen) supplemented with 10% FBS, P/S, 10 mM HEPES and 2 mM L-glutamine. HUVEC was maintained in M199 supplemented with basic fibroblast growth factor (‘bFGF’) […] and FBS 20%. All cells were incubated at 37° C. under humidified 5% CO2.
(§2) The growth inhibition of the substituted quinoxalin-piperazine compounds against a variety of human tumor cells was evaluated. The relative importance of particular substituent groups on the compounds was also studied. The substituted piperazine derivative compounds, prepared as described above, were tested, along with DMSO as a control.
(§3) The growth inhibition assay of various compounds against human tumor cell lines was performed using the Sulforhodamine B (‘SRB’) method (Skehan et al., J. National Cancer Institute, 1990, 82, 1107-1112). […] Triplicate wells were used for each treatment. The cells were incubated with the various compounds for 96 hours at 37° C. in a humidified 5% CO2 atmosphere. After 96-hour incubation, cells were fixed with 10% trichloroacetic acid (‘TCA’), incubated for 1 hour at 4° C., and washed 3 times with tap water. Subsequently cells were stained with 0.4% sulforhodamine B in 1% acetic acid for 30 minutes, washed 4 times with 1% acetic acid, and air-dried again. After 5 minutes agitation in 10 mM Tris solution, the absorbance of each well was measured at 530 nm using Benchmark Plus Microplate reader (Bio-Rad Laboratories, Hercules, Calif.).
(§4) To translate the OD530 values into the number of live cells in each well, the OD530 values were compared to those on standard OD530-versus-cell number curves generated for each cell line. The percent survival was calculated using the formula: % Survival=live cell number[test]/live cell number[control]×100
(§5) The IC50 values were calculated by non-linear regression analysis.

The next test has as its system PANC-1 (pancreas). As to the kind of experiment: Cell growth inhibition assay (SRB), PANC-1. As to the method: as §1, §2, §3, §4, §5
Another test relates to UMRC2 (kidney). Nature of the test: Cell growth inhibition assay (SRB), UMRC2. The method, then: as §1, §2, §3, §4, §5
The mark [1] stands for this setting: Homo sapiens, MDA-MB-231 (breast), read-out: IC50, MDA-MB-231.
Setting [2] is: Homo sapiens, PANC-1 (pancreas), read-out: IC50, PANC-1.
[3] abbreviates: Homo sapiens, UMRC2 (kidney), read-out: IC50, UMRC2.
[4] abbreviates: MDA-MB-231 (breast), read-out: IC50, MDA-MB-231.
The mark [5] stands for this setting: PANC-1 (pancreas), read-out: IC50, PANC-1.
[6] abbreviates: UMRC2 (kidney), read-out: IC50, UMRC2.
The mark [7] stands for this setting: Homo sapiens, MDA-MB-231, read-out: Inhibition of cell growth (IC50, μM) by quinoxaline-piperazine compounds against human cancer cell lines: MDA-MB-231.
Setting [8] is: Homo sapiens, PANC-1, read-out: Inhibition of cell growth (IC50, μM) by quinoxaline-piperazine compounds against human cancer cell lines: PANC-1.
The mark [9] stands for this setting: Homo sapiens, UMRC2, read-out: Inhibition of cell growth (IC50, μM) by quinoxaline-piperazine compounds against human cancer cell lines: UMRC2.
Setting [10] is: MDA-MB-231, read-out: Inhibition of cell growth (IC50, μM) by quinoxaline-piperazine compounds against human cancer cell lines: MDA-MB-231.
Setting [11] is: PANC-1, read-out: Inhibition of cell growth (IC50, μM) by quinoxaline-piperazine compounds against human cancer cell lines: PANC-1.
Setting [12] is: UMRC2, read-out: Inhibition of cell growth (IC50, μM) by quinoxaline-piperazine compounds against human cancer cell lines: UMRC2.

A word on the IC50: it is the concentration needed to halve the response being measured. With `COc1nc2cc(Cl)ccc2nc1NC(=O)N1CCN(c2cccc(C)c2)CC1` [Compound 113, 1-[(6-Chloro-3-methoxyquinoxalin-2-yl)aminocarbonyl]-4-(3-methylphenyl)piperazine], the IC50 in the test on MDA-MB-231 (breast) (setting [1]) was 0.3 µM; in the test with PANC-1 (pancreas) (setting [2]), 0.61 µM; in the test with UMRC2 (kidney) (setting [3]), 0.4 µM.

For the molecule `COc1cccc(N2CCN(C(=O)Nc3nc4ccc(OC)cc4nc3OC)CC2)c1` [Compound 150, 1-[(3,6-Dimethoxyquinoxalin-2-yl)aminocarbonyl]-4-(3-methoxyphenyl)piperazine], the IC50 is ≥ 1 µM with MDA-MB-231 (breast) (setting [1]), > 1 µM with PANC-1 (pancreas) (setting [2]) and > 1 µM in the test on UMRC2 (kidney) (setting [3]).

Take `COc1nc2cc(Cl)ccc2nc1NC(=O)N1CCN(c2cccc(C(F)(F)F)c2)CC1` [Compound 116, 1-[(6-Chloro-3-methoxyquinoxalin-2-yl)aminocarbonyl]-4-(3-trifluorotolyl)piperazine]: the IC50 with MDA-MB-231 (breast) (setting [4]), in the test on PANC-1 (pancreas) (setting [5]) and in the test with UMRC2 (kidney) (setting [6]) was > 1 µM throughout.

Consider `COc1cc(OC)cc(N2CCN(C(=O)Nc3nc4cc(Cl)c(Cl)cc4nc3OC)CC2)c1` [Compound 177, 1-[(6,7-Dichloro-2-methoxyquinoxalin-3-yl)aminocarbonyl]-4-(3,5-dimethoxyphenyl)piperazine], for which the IC50 came to 1.45 µM with MDA-MB-231 (breast) (setting [1]), 1.16 µM with PANC-1 (pancreas) (setting [2]) and 0.58 µM in the test on UMRC2 (kidney) (setting [3]).

For the molecule `COc1nc2cc(F)ccc2nc1NC(=O)N1CCN(c2cccc(C)c2)CC1` [Compound 92, 1-[(6-Fluoro-3-methoxyquinoxalin-2-yl)aminocarbonyl]-4-(3-methylphenyl)piperazine], the half-inhibitory concentration (IC50) turned out to be 0.21 µM in the test on MDA-MB-231 (breast) (setting [7]), 0.95 µM in the test with PANC-1 (pancreas) (setting [8]) and 0.37 µM in the test with UMRC2 (kidney) (setting [9]).

Take `COc1nc2ccc(F)cc2nc1NC(=O)N1CCN(c2cccc(C(F)(F)F)c2)CC1` [Compound 11, 1-[(6-Fluoro-2-methoxyquinoxalin-3-yl)aminocarbonyl]-4-(3-trifluorotolyl)piperazine]: the half-maximal inhibitory concentration (IC50) with MDA-MB-231 (breast) (setting [10]) was 0.25 µM; with PANC-1 (pancreas) (setting [11]) it was 1.06 µM; in the test on UMRC2 (kidney) (setting [12]), 0.39 µM.

Consider `COc1nc2ccc(C)cc2nc1NC(=O)N1CCN(c2cccc(Cl)c2)CC1` [Compound 57, 1-[(2-Methoxy-6-methylquinoxalin-3-yl)aminocarbonyl]-4-(3-chlorophenyl)piperazine], for which the IC50 in the test with MDA-MB-231 (breast) (setting [7]) came to 0.14 µM; in the test on PANC-1 (pancreas) (setting [8]) it was 0.64 µM; with UMRC2 (kidney) (setting [9]) it was 0.24 µM.

As for `COc1ccc2nc(OC)c(NC(=O)N3CCN(c4cccc(C)c4)CC3)nc2c1` [Compound 71, 1-[(2,6-Dimethoxyquinoxalin-3-yl)aminocarbonyl]-4-(3-methylphenyl)piperazine], the values for the IC50 in the test with MDA-MB-231 (breast) (setting [7]), in the test with PANC-1 (pancreas) (setting [8]) and in the test with UMRC2 (kidney) (setting [9]) were 0.4 µM, 1.43 µM and 0.63 µM, respectively.

On to `COc1cc2nc(NC(=O)N3CCN(c4cc(C)cc(C)c4)CC3)c(OC)nc2cc1OC` [Compound 193, 1-[(2,6,7-Trimethoxyquinoxalin-3-yl)aminocarbonyl]-4-(3,5-dimethylphenyl)piperazine], for which the concentration for half-maximal inhibition (IC50) amounted to 0.65 µM in the test with MDA-MB-231 (breast) (setting [1]), 0.69 µM with PANC-1 (pancreas) (setting [2]) and 0.47 µM in the test on UMRC2 (kidney) (setting [3]).

Take `COc1nc2ccc(Cl)cc2nc1NC(=O)N1CCN(c2cccc(C)c2)CC1` [Compound 29, 1-[(6-Chloro-2-methoxyquinoxalin-3-yl)aminocarbonyl]-4-(3-methylphenyl)piperazine]: the results for the IC50 with MDA-MB-231 (breast) (setting [7]), with PANC-1 (pancreas) (setting [8]) and in the test on UMRC2 (kidney) (setting [9]) were 0.16 µM, 0.95 µM and 0.3 µM, respectively.

Turning to `COc1nc2cc(F)ccc2nc1NC(=O)N1CCN(c2cccc(C(F)(F)F)c2)CC1` [Compound 95, 1-[(6-Fluoro-3-methoxyquinoxalin-2-yl)aminocarbonyl]-4-(3-trifluorotoly)piperazine], the IC50 in the test on MDA-MB-231 (breast) (setting [4]), in the test with PANC-1 (pancreas) (setting [5]) and with UMRC2 (kidney) (setting [6]) was > 1 µM throughout.

Regarding `COc1cc2nc(NC(=O)N3CCN(c4cccc(Br)c4)CC3)c(OC)nc2cc1OC` [Compound 196, 1-[(2,6,7-Trimethoxyquinoxalin-3-yl)aminocarbonyl]-4-(3-bromophenyl)piperazine], the IC50 in the test with MDA-MB-231 (breast) (setting [1]) worked out at 0.72 µM; in the test with PANC-1 (pancreas) (setting [2]), 1.05 µM; in the test with UMRC2 (kidney) (setting [3]), 0.65 µM.

For `COc1nc2cc(C)ccc2nc1NC(=O)N1CCN(c2cccc(Cl)c2)CC1` [Compound 141, 1-[(3-Methoxy-6-methylquinoxalin-2-yl)aminocarbonyl]-4-(3-chlorophenyl)piperazine], the half-maximal inhibitory concentration (IC50) with MDA-MB-231 (breast) (setting [1]) and in the test on UMRC2 (kidney) (setting [3]) was 0.25 µM throughout.

With `COc1nc2cc(F)c(F)cc2nc1NC(=O)N1CCN(c2cc(C)cc(C)c2)CC1` [Compound 172, 1-[(6,7-Difluoro-2-methoxyquinoxalin-3-yl)aminocarbonyl]-4-(3,5-dimethylphenyl)piperazine], the results for the 50% inhibitory concentration (IC50) with MDA-MB-231 (breast) (setting [1]), with PANC-1 (pancreas) (setting [2]) and in the test on UMRC2 (kidney) (setting [3]) were 0.7 µM, 1 µM and 0.56 µM, respectively.

As to `COc1nc2ccc(C)cc2nc1NC(=O)N1CCN(c2cccc(C(F)(F)F)c2)CC1` [Compound 53, 1-[(2-Methoxy-6-methylquinoxalin-3-yl)aminocarbonyl]-4-(3-trifluorotolyl)piperazine], the IC50 with MDA-MB-231 (breast) (setting [10]), in the test with PANC-1 (pancreas) (setting [11]) and in the test on UMRC2 (kidney) (setting [12]) was > 1 µM in each case.

On to `COc1ccc2nc(NC(=O)N3CCN(c4ccccn4)CC3)c(OC)nc2c1` [Compound 167, 1-[(3,6-Dimethoxyquinoxalin-2-yl)aminocarbonyl]-4-(2-pyridyl)piperazine], for which the IC50 in the test with MDA-MB-231 (breast) (setting [1]), with PANC-1 (pancreas) (setting [2]) and in the test with UMRC2 (kidney) (setting [3]) was > 1 µM in each case.

For `COc1cccc(N2CCN(C(=O)Nc3nc4ccc(F)cc4nc3OC)CC2)c1` [Compound 87, 1-[(6-Fluoro-3-methoxyquinoxalin-2-yl)aminocarbonyl]-4-(3-methoxyphenyl)piperazine], the IC50 in the test with MDA-MB-231 (breast) (setting [7]), in the test with PANC-1 (pancreas) (setting [8]) and in the test on UMRC2 (kidney) (setting [9]) was > 1 µM throughout.

On to `COc1cc(OC)cc(N2CCN(C(=O)Nc3nc4cc(OC)c(OC)cc4nc3OC)CC2)c1` [Compound 191, 1-[(2,6,7-Trimethoxyquinoxalin-3-yl)aminocarbonyl]-4-(3,5-dimethoxyphenyl)piperazine], for which the IC50 in the test with MDA-MB-231 (breast) (setting [1]) came to 0.69 µM; in the test on PANC-1 (pancreas) (setting [2]), 0.9 µM; in the test on UMRC2 (kidney) (setting [3]) it was 0.49 µM.

As for `COc1ccc2nc(OC)c(NC(=O)N3CCN(c4cccc(Cl)c4)CC3)nc2c1` [Compound 78, 1-[(2,6-Dimethoxyquinoxalin-3-yl)aminocarbonyl]-4-(3-chlorophenyl)piperazine], the IC50 in the test on MDA-MB-231 (breast) (setting [7]), with PANC-1 (pancreas) (setting [8]) and in the test with UMRC2 (kidney) (setting [9]) was > 1 µM in each case.

Consider `COc1cc2nc(NC(=O)N3CCN(c4cccc(C(F)(F)F)c4)CC3)c(OC)nc2cc1OC` [Compound 194, 1-[(2,6,7-Trimethoxyquinoxalin-3-yl)aminocarbonyl]-4-(3-trifluorotolyl)piperazine], for which the concentration for half-maximal inhibition (IC50) in the test on MDA-MB-231 (breast) (setting [4]) was 0.75 µM; in the test with PANC-1 (pancreas) (setting [5]) it was 1.4 µM; with UMRC2 (kidney) (setting [6]), 0.79 µM.

For the molecule `COc1ccc2nc(NC(=O)N3CCN(c4cccc(C(F)(F)F)c4)CC3)c(OC)nc2c1` [Compound 158, 1-[(3,6-Dimethoxyquinoxalin-2-yl)aminocarbonyl]-4-(3-trifluorotoly)piperazine], the 50% inhibitory concentration (IC50) in the test with MDA-MB-231 (breast) (setting [4]), in the test with PANC-1 (pancreas) (setting [5]) and with UMRC2 (kidney) (setting [6]) was > 1 µM throughout.

Turning to `COc1nc2cc(C)ccc2nc1NC(=O)N1CCN(c2cccc(C)c2)CC1` [Compound 134, 1-[(3-Methoxy-6-methylquinoxalin-2-yl)aminocarbonyl]-4-(3-methylphenyl)piperazine], the half-maximal inhibitory concentration (IC50) with MDA-MB-231 (breast) (setting [1]) and with UMRC2 (kidney) (setting [3]) was 0.26 µM each time.
